# Assay results taken from US20230309555A1, “ENVIRONMENTALLY RESPONSIVE TRANS-2-HEXENAL SUSTAINED-RELEASE AGENT, PREPARATION METHOD, AND APPLICATION” (ZHEJIANG UNIVERSITY, priority 2022, published 2023).
# Experiments:
# Botrytis cinerea [1] = assay: growth of Botrytis cinerea on potato dextrose agar plate medium; format: cell-based; conditions: after 4 days culture at 25 °C
# Protocol: Botrytis cinerea lesion with a diameter of 5 mm was inoculated on the center of a potato dextrose agar medium plate. The experiment was performed by seven groups as follows: • a. A BLANK group: nothing was added; • b. A GSH group: 1 g reductive glutathione was added to a lid of a Petri dish and the Petri dish was sealed immediately; • c. A GSH3h group: 1 g reductive glutathione was added to a lid of a Petri dish and then the Petri dish was sealed after being left open for 3 h at room temperature; • d. A Group […]: 20 μL trans-2-hexenal was added to a lid of a Petri dish and the Petri dish was sealed immediately; • e. An E-2-[…] group: 20 μL trans-2-hexenal was added to a lid of a Petri dish and the Petri dish was sealed after being left open for 3 h at room temperature; • f. […] After all groups were sealed completely, the groups were inverted and cultured at 25° C.The growth of Botrytis cinerea was checked regularly.
# [2] = 0.05 g product, sealed vial 7 d; 4, 25, 45 °C; relative humidity 0%, 30%, 50%, 70%, 85%, 100%
# Protocol: 20 mL glass vials were filled with 3 g of silica gel, 3 mL of saturated magnesium chloride solution, 3 mL of saturated potassium carbonate solution, 3 mL of saturated potassium iodide solution, 3 mL of saturated of potassium chloride solution, and 3 mL of pure water and then sealed until reaching relative humidity of 0%, 30%, 50%, 70%, 85% and 100%, respectively, and the mixed solution was balanced at 4° C. for 1 h. 0.05 g product was weighed and placed in a 2 mL glass vial, then transferred to the 20 mL glass vial and sealed for 7 d, and the release amount was measured every day.
# 20 mL glass vials were filled with 3 g of silica gel, 3 mL of saturated magnesium chloride solution, 3 mL of saturated potassium carbonate solution, 3 mL of saturated potassium iodide solution, 3 mL of saturated potassium chloride solution, and 3 mL of pure water until reaching relative humidity of 0%, 30%, 50%, 70%, 85% and 100%, respectively, and the mixed solution was balanced at 25° C. for 1 h. 0.05 g product was weighed in a 2 mL glass vial, then transferred to the 20 mL glass vial and sealed for 7 d, and the release amount was measured every day. […]
# Botrytis cinerea [3] = conditions: strawberries injected with 4 µL of 5×10^5 cfu/mL Botrytis cinerea; 6 g product at bottom of fresh-keeping box; room temperature
# Protocol: Strawberries which were harvested at the same maturity, similar in size and without any infestation with insects or pets and damage, were selected. The strawberries were surface-sterilized by immersing in 0.5% (v/v) sodium hypochlorite for 5 min, then washed with sterile water to remove residues and dried at room temperature. The strawberries were randomly divided into 2 groups, each group including 33 strawberries, and then packed into a certain volume of fresh-keeping boxes (11 strawberries per box). In group a, 4 µL of 5×10^5cfu/mL of Botrytis cinerea solution was injected into the equatorial part of the strawberry. […] The experiment was conducted at room temperature and the strawberries were observed daily for decay, and the diameter of the lesions was measured daily.
# [4] = Petri dish sealed after being left open for 3 h at room temperature
# [5] = Petri dish sealed immediately after addition
Compound,lesion diameter of Botrytis cinerea on plate medium (Botrytis cinerea [1]; [4]),lesion diameter of Botrytis cinerea on plate medium (Botrytis cinerea [1]; [5]),release rate of trans-2-hexenal from the products [2],difference in bacterial inhibition results between group sealed immediately and group sealed after being left open for 3 h (Botrytis cinerea [1]; 1 g product),bacterial inhibition (incidence of fruit gray mold) (Botrytis cinerea [3]),growth diameters of the lesion of fruit (Botrytis cinerea [3])
CCC/C=C/C=O [trans-2-hexenal],larger than that of the glutathione/trans-2-hexenal addition product group,significantly lower lesion diameter than other groups,–,–,–,–
CCCC(CC=O)SC[C@H](NC(=O)CC[C@H](N)C(=O)O)C(=O)NCC(=O)O (stereo partly shown),significantly smaller than that of the blank group,significantly smaller than that of the blank group,increased with the increase in relative humidity and temperature,little difference,better than the control group,lower than that of the control group
N[C@@H](CCC(=O)N[C@@H](CS)C(=O)NCC(=O)O)C(=O)O [reductive glutathione],not significantly different from the blank group,not significantly different from the blank group,–,–,–,–
